Measured values as given in PubChem BioAssay (NCI).
Values joined by “and” are separate entries in the source; they are usually repeats but may differ in a detail not shown here. Equal entries are not always repeated.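 Method: 48-hour compound exposure of cells in 96-well plates, five concentrations, linear interpolation of endpoints. Abbreviation: GI50, concentration required for 50% inhibition of growth. TGI is the concentration that stops growth completely.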

Tests used:
Test in all cases: NCI tumour cell line growth inhibition, 48 h
DLD-1 colon = tested on: DLD-1 colon
DMS 273 small cell lung = tested on: DMS 273 small cell lung
HOP-62 NSCLC = tested on: HOP-62 NSCLC
HOP-92 NSCLC = tested on: HOP-92 NSCLC
KM12 colon = tested on: KM12 colon
M19-MEL melanoma = tested on: M19-MEL melanoma
OVCAR-4 ovarian = tested on: OVCAR-4 ovarian
SF-295 CNS = tested on: SF-295 CNS
SK-MEL-2 melanoma = tested on: SK-MEL-2 melanoma
U251 CNS = tested on: U251 CNS
UACC-257 melanoma = tested on: UACC-257 melanoma

| Compound | TGI (DLD-1 colon) | TGI (DMS 273 small cell lung) | TGI (HOP-62 NSCLC) | TGI (HOP-92 NSCLC) | TGI (KM12 colon) | TGI (M19-MEL melanoma) | TGI (OVCAR-4 ovarian) | TGI (SF-295 CNS) | TGI (SK-MEL-2 melanoma) | TGI (U251 CNS) | TGI (UACC-257 melanoma) | GI50 (UACC-257 melanoma) | GI50 (HOP-62 NSCLC) | GI50 (HOP-92 NSCLC) | GI50 (KM12 colon) | GI50 (OVCAR-4 ovarian) | GI50 (SF-295 CNS) | GI50 (SK-MEL-2 melanoma) | GI50 (U251 CNS) |
| --- | --- | --- | --- | --- | --- | --- | --- | --- | --- | --- | --- | --- | --- | --- | --- | --- | --- | --- | --- |
| CCOC(OC(C)=O)[C@@H]1C=C[C@H](C)N(c2ccc([N+](=O)[O-])cc2)O1 (stereo not given in full) | 11.1 µM | 13.4 µM | 31.6 µM | 16.2 µM | 7.82 µM | 5.3 µM | 15.4 µM | 27.4 µM | 13.5 µM | 9 µM | 26.9 µM |  |  |  |  |  |  |  |  |
| CSc1ccc2c(cc1=O)[C@@H](NC(=O)c1cccc([N+](=O)[O-])c1)CCc1cc(O)c(O)c(O)c1-2 | > 100 µM | > 100 µM | > 100 µM | > 100 µM | > 100 µM | 49.4 µM | > 100 µM | > 100 µM | > 100 µM | 51.5 µM | > 100 µM |  |  |  |  |  |  |  |  |
| C=C(CCCCC)CN1CCCC1C(C)=O (stereo not given) | > 100 µM | 53.1 µM | 64.1 µM | 63.8 µM | > 100 µM | > 100 µM | 99.3 µM | > 94.7 µM | > 74.7 µM | > 100 µM | > 73.3 µM |  |  |  |  |  |  |  |  |
| Cc1ccc(C)c(N2C(=O)C(=O)C(c3nc4ccccc4s3)/C(=N/N)C2=O)c1 (stereo not given) | > 100 µM | > 100 µM | > 100 µM | > 100 µM | > 100 µM | > 52.7 µM | > 100 µM | > 33.5 µM | > 100 µM | > 100 µM | > 74.5 µM |  |  |  |  |  |  |  |  |
| COc1cc2cc(OC(C)=O)c3cc4c(cc3c2c(OC)c1OC)OCO4 | > 100 µM | > 100 µM | > 100 µM |  | > 100 µM | > 100 µM | > 100 µM | > 100 µM | > 100 µM | > 100 µM | > 100 µM |  |  |  |  |  |  |  |  |
| COc1ccc(Cc2c3cc(O)c(=O)cc-3ccn2C)cc1 | > 100 µM | > 100 µM | 82.4 µM | > 100 µM | > 100 µM | 75 µM | > 100 µM | > 100 µM | > 100 µM | > 100 µM | > 89.8 µM |  |  |  |  |  |  |  |  |
| C=CCC1(CN(C)C)CC/C(=C\c2ccc(OC)cc2)C1=O (stereo not given) | > 100 µM | > 100 µM | > 100 µM | > 100 µM | > 100 µM | > 100 µM | > 100 µM | > 100 µM | > 100 µM | > 100 µM | > 100 µM |  |  |  |  |  |  |  |  |
| COC(=O)[C@@H]1c2cc3c(c(O)c2[C@@H](OC2OC(C)C(OC)C(C)(OC)C2OC)C[C@]1(C)O)C(=O)c1c(O)cc2c(c1C3=O)O[C@H]1O[C@]2(C)[C@H](O)[C@@H](N(C)C)[C@@H]1O (stereo not given in full) | 0.258 µM and 0.436 µM | 0.0282 µM | 0.328 µM and 0.0435 µM | 0.0546 µM and 0.418 µM | 0.0425 µM and 0.0508 µM | 0.0156 µM and 0.0185 µM | 0.291 µM | 0.254 µM and 1.22 µM | 0.0134 µM and 0.0177 µM | 0.443 µM and 0.236 µM | 0.0638 µM and 0.0472 µM | 0.0123 µM |  |  |  |  |  |  |  |
| CC(=O)Nc1ccc(/C=C/C(=O)c2sc(-c3cccnc3)nc2C)cc1 | > 100 µM | > 100 µM | > 100 µM | > 100 µM | > 100 µM | > 100 µM |  | > 100 µM | > 100 µM | > 100 µM | > 100 µM |  |  |  |  |  |  |  |  |
| CC1(C)OC2C(CCP(=O)(O)O)OC(c3nc(C(N)=O)cs3)C2O1 (stereo not given) | > 100 µM | > 100 µM |  | > 100 µM | > 100 µM | > 100 µM | > 100 µM |  | > 100 µM | > 100 µM | > 100 µM |  |  |  |  |  |  |  |  |
| CN(CCS(=O)(=O)N1C(=O)C2CCCN2C(=O)[C@@H]1Cc1ccccc1)C(=O)OCc1ccccc1 (stereo not given in full) | > 100 µM |  | > 100 µM | > 100 µM | > 100 µM | > 100 µM | > 100 µM | > 100 µM |  | > 100 µM | > 100 µM |  |  |  |  |  |  |  |  |
| O=C1C=C(Nc2ccc(Cl)cc2Cl)c2ccccc2C1=O | > 100 µM | 79.5 µM | > 100 µM | 56.5 µM | > 100 µM | 26.3 µM | > 100 µM | > 100 µM | 60.8 µM | > 100 µM | > 100 µM |  |  |  |  |  |  |  |  |
| COC(COC(N)=O)C1=C(N2CC2)C(=O)C(C)=C(N2CC2)C1=O (stereo not given) | 1.03 µM | 0.0752 µM | 0.227 µM | 1.15 µM | 0.365 µM | 0.507 µM | 0.413 µM | 0.413 µM | 0.492 µM | 0.698 µM | 0.579 µM |  |  |  |  |  |  |  |  |
| COC(=O)c1cc2c(=O)n(C)c3ccccc3n2c1C(=O)OC | > 100 µM | > 100 µM | 36.9 µM | > 100 µM | > 100 µM | > 100 µM | > 100 µM | > 100 µM | > 100 µM | 58.8 µM | > 100 µM |  |  |  |  |  |  |  |  |
| C/C(=N\N=C(N)N)C(CN1CCCCC1)C(c1ccccc1)c1c(O)c2ccccc2oc1=O (stereo not given) | > 100 µM |  | > 100 µM | > 100 µM |  | > 100 µM | > 100 µM | > 100 µM | > 100 µM |  | > 100 µM |  |  |  |  |  |  |  |  |
| COC1CCC(OS(C)(=O)=O)C(CO)O1 (stereo not given) | > 100 µM |  | > 100 µM | > 100 µM | > 100 µM | > 100 µM |  | > 100 µM | > 100 µM | > 100 µM | > 100 µM |  |  |  |  |  |  |  |  |
| C/C=C(\C)c1cc(=O)c2c(C)cc3c(c2o1)C(=O)c1c(O)c(C2CC(C)(N(C)C)C(OC(C)=O)C(C)O2)cc(C2CC(N(C)C)C(O)C(C)O2)c1C3=O (stereo not given) |  |  | 6.45 µM | 30.9 µM | 6.49 µM |  | 10.2 µM | > 16.9 µM | 2.87 µM | > 50 µM | 6.47 µM |  |  |  |  |  |  |  |  |
| CCN(CC)CCCNc1nccc2c(C)c3c(cc12)c1cnccc1n3C | 0.266 µM | 0.181 µM | 0.571 µM |  |  | 2.67 µM | 0.131 µM | 1.31 µM |  | 1.77 µM |  |  |  |  |  |  |  |  |  |
| NCCSSCc1ccccc1CSSCCN | > 100 µM | > 100 µM | > 100 µM | > 100 µM | > 100 µM | > 100 µM | > 100 µM | > 100 µM |  | > 100 µM | > 100 µM |  |  |  |  |  |  |  |  |
| Oc1ccc(C=Nc2ccccc2O)cc1 |  |  | > 100 µM | > 100 µM | > 100 µM |  | > 100 µM | > 100 µM | 57.3 µM | > 100 µM | 65.3 µM |  |  |  |  |  |  |  |  |
| CNC(=O)c1c(C)oc2cc(Oc3ncnc4cc(OC)c(OC)cc34)ccc12 |  |  | > 100 µM | > 100 µM | > 100 µM |  | > 100 µM | > 100 µM | > 100 µM | > 100 µM | > 100 µM | > 100 µM | > 100 µM | 3.2 µM | > 100 µM | > 100 µM | > 100 µM | > 100 µM | 5.51 µM |
